Test results reported in PMC3684770 (Free Radical Biology & Medicine, 2013).
Like-named read-outs stand apart in the source and are kept apart here.

What was measured:
Nrf2-ARE pathway = experiment: ARE reporter assay in CHO 4xARE-TK-GFP cells (Spectrum library hits); conditions: for Cmax: read-out: Cmax (concentration inducing a maximal response), CHO-4xARE-TK, 24 hours, serum free medium; for maximal fold induction: CHO, read-out: Fold GFP induction; for Toxic dose: lowest dose at which a reduction in GFP fluorescence was observed
Method: The Z′ score was calculated as follows Z′=1−(3SD^++3SD^−)/(Ave^+–Ave^−) where SD^+ = standard deviation of positive control wells; SD^− = standard deviation of negative control wells; Ave^+ = average fluorescence reading of positive control wells; Ave^− = average fluorescence reading of negative control wells.
Media was removed by hand and replaced (1 compound/well) with the Spectrum library diluted to 10 μM in 0.1% DMSO using a Q-bot liquid handling system (Genetix, New Milton, UK). […] The TK-GFP CHO ARE cell line was screened twice in a single point assay and the control TK-GFP CHO cell line was screened once to eliminate false positives.
The compounds were applied in triplicate to confluent cells in 96 well plates in serum free medium for 24 hours and the induction of GFP measured in a fluorescence plate reader.
In order to screen the Spectrum collection of 2000 molecules the reporter assay was optimised in […]. To assess the suitability of the assay for library screening, a Z’ score calculation was performed by treating alternate wells with vehicle (0.1% DMSO) and 10 µM Ebselen as a positive control (see calculation in Methods). […] The library was subsequently screened at a single point concentration of 10µM for every compound. Drug library dilutions and plating were performed with a Q-BOT liquid handling system and both the 4xARE-TK-GFP reporter cell line and TK-GFP control cell line were tested for their response to the compounds. Hits were identified as having data points more than three standard deviations above the background level, which was the average value of 24 wells treated with vehicle (0.1% DMSO) only. Hit compounds were checked to see if they generated a response in the control cell line, for example by non-specific activation of transcription or autofluorescence. […] The library screen was repeated once in the 4xARE –TK-CHO cell line and compounds classed as hits in both screens were taken forward for further assessment.

[1] = system: 1321N1 astrocyte cell line; experiment: 1321N1 oxidative stress assay (serum withdrawal, DCF); conditions: for Emax: 1321-N1, 24 h, read-out: 1321N1 oxidative stress assay Max reduction; for 1321N1 oxidative stress assay Toxic dose: minimum dose at which toxicity was observed
Method: (§1) Media were then replaced with serum-free, phenol-free media for 5 h.

NSC34 cells = experiment: NSC34 oxidative stress assay (serum withdrawal, DCF); conditions: for Emax: Mus musculus, NSC-34, 24 h, read-out: NSC34 oxidative stress assay Max reduction; for NSC34 oxidative stress assay Toxic dose: minimum dose at which toxicity was observed
Method: as §1

C6 astrocyte cell line = experiment: C6 oxidative stress assay (serum withdrawal, DCF); conditions: for IC50: read-out: C6 oxidative stress assay IC50; for Emax: 24 h, read-out: C6 oxidative stress assay Max reduction; for C6 oxidative stress assay Toxic dose: minimum dose at which toxicity was observed
Method: as §1

[2] = Homo sapiens, 1321-N1, read-out: 1321N1 oxidative stress assay IC50
[3] = maximum % inhibition of DCF signal
[4] = read-out: 1321N1 oxidative stress assay IC50, 24-h preconditioning, 6-h serum withdrawal, DCF fluorescence
[5] = maximum % inhibition of DCF signal, negative = prooxidant
[6] = CHO ARE reporter, 7-point concentration response
[7] = average fold over baseline at the maximal response, CHO cells, 24 h

Compound | Emax ([1]; Homo sapiens) | IC50 [1, 2] | 1321N1 oxidative stress assay Toxic dose [1] | Emax (NSC34 cells) | NSC34 oxidative stress assay Toxic dose (NSC34 cells) | EC50 (Nrf2-ARE pathway; Cricetulus griseus) | Toxic dose (Nrf2-ARE pathway) | Emax (C6 astrocyte cell line; Rattus norvegicus, Astrocyte) | IC50 (C6 astrocyte cell line; Rattus norvegicus, Astrocyte) | C6 oxidative stress assay Toxic dose (C6 astrocyte cell line) | other results
epigallocatechin-3-gallate [EGCG, reference compound] |  |  |  |  |  |  |  |  |  |  | Cmax (Nrf2-ARE pathway): 100 µM
3-α-Hydroxygedinin |  |  |  |  |  |  |  |  |  |  | 1321N1 oxidative stress assay Max reduction [1]: 25%; NSC34 oxidative stress assay Max reduction (NSC34 cells): 14%; Fold GFP induction (Nrf2-ARE pathway): 3.01 fold; C6 oxidative stress assay Max reduction (C6 astrocyte cell line): 42%; IC50 (C6 astrocyte cell line): 3.22 µM
Cc1[nH]c2ccccc2c1CN(C)C [2-Methyl gramine] | 36% | 11 µM | none | -30% | 3 µM | 3 µM | 100 µM | 36% | 32 µM | none | maximal fold induction (Nrf2-ARE pathway; Cricetulus griseus, 24 h): 2.27
CC(=O)O[C@@H]1C[C@H]2C(C)(C)C(=O)C=C[C@]2(C)[C@H]2CC[C@]3(C)C(=CC(=O)O[C@H]3c3ccoc3)[C@@]21C [Deoxygedunin] |  |  | 10 µM |  | 10 µM |  | 30 µM |  |  | none | 1321N1 oxidative stress assay Max reduction [1, 3]: 25%; IC50 [1, 4]: 1.41 µM; NSC34 oxidative stress assay Max reduction (NSC34 cells; [5]): 7%; EC50 (Nrf2-ARE pathway; [6]): 1.15 µM; Fold GFP induction (Nrf2-ARE pathway; [7]): 1.82 fold; C6 oxidative stress assay Max reduction (C6 astrocyte cell line; [3]): 61%; IC50 (C6 astrocyte cell line; 24-h preconditioning, 6-h serum withdrawal, DCF fluorescence): 2.19 µM
CC(C)(C)c1cc(O)ccc1O [tBHQ, tert-butyl hydroquinone, reference compound] |  |  |  |  |  |  |  |  |  |  | Cmax (Nrf2-ARE pathway): 10 µM
CC(=O)Oc1ccc(O)cc1 [4-Acetoxyphenol] | 42% | 0.298 µM | none | -70% | none | 2.91 µM | 100 µM | 0% |  | none | 
CC(=O)O[C@H]1CCC2(C)C3=C(CCC2C1(C)C)[C@@]1(C)CC[C@@H](C(C)CCC=C(C)C)[C@]1(C)CC3 (stereo partly drawn) [Euphol acetate] |  |  | none |  | none |  | 100 µM |  |  | none | 1321N1 oxidative stress assay Max reduction [1, 3]: 38%; IC50 [1, 4]: 18 µM; NSC34 oxidative stress assay Max reduction (NSC34 cells; [5]): -43%; Fold GFP induction (Nrf2-ARE pathway; [7]): 2.20 fold; C6 oxidative stress assay Max reduction (C6 astrocyte cell line; [3]): 0%
CCCCCc1c2c(cc(O)c1C(=O)O)OC(=O)c1c(cc(OC)cc1C(=O)CCCC)O2 [Lobaric acid] | 0% |  | none | -26% | none | 17 µM | 100 µM | 9% | 3.14 µM | none | 
OC[C@H]1O[C@@H](n2cnc3c(NCc4ccco4)ncnc32)[C@H](O)[C@@H]1O [Kinetin riboside] | 25% | 0.246 µM | 3 µM | 0% | 3 µM |  | 30 µM | 40% | 3.84 µM | 10 µM | 
CC(=O)OC1CC[C@@]2(C)C(CC[C@H]3[C@@H]4CC=C(C(C)=O)[C@@]4(C)C(=O)C[C@@H]32)C1 (stereo partly drawn) [3 Acetoxypregn-16-en-12,20-dione] | 75% | 12.4 µM | None | 0% | None | 2.98 µM | 30 µM | 50% | 5.34 µM | None | 
CC(=O)O[C@@H]1CC2C(C)(C)C=CC(=O)[C@]2(C)C2CC[C@@]3(C)[C@H](c4ccoc4)OC(=O)C4OC43[C@@]21C (stereo partly drawn) [Isogedunin] |  |  | None |  | 1 µM |  | None |  |  |  | 1321N1 oxidative stress assay Max reduction [1, 3]: 10%; NSC34 oxidative stress assay Max reduction (NSC34 cells; [5]): 0%; EC50 (Nrf2-ARE pathway; [6]): > 100 µM; Fold GFP induction (Nrf2-ARE pathway; [7]): 3.11 fold
C=C(CC)C(=O)c1ccc(OCC(=O)O)c(Cl)c1Cl [Ethacrynic acid, reference compound] | 25% | 3.01 µM |  | -30% | 10 µM | 14 µM | 100 µM | 31% | 3.01 µM |  | 
CC(C)N(C(=O)CCl)c1ccccc1 [Propachlor] | 50% | 0.829 µM | 10 µM | 0% | 10 µM | 1.49 µM | 100 µM | 74% | 0.645 µM | 10 µM | Fold GFP induction (Nrf2-ARE pathway; [7]): 3.25 fold
O=c1c2ccccc2[se]n1-c1ccccc1 [Ebselen, reference compound] | 20% | 0.193 µM | none | -80% | none | 4 µM | 100 µM | 30% |  | none | EC90 (Nrf2-ARE pathway; Cricetulus griseus, read-out: approximate EC90): ~10 µM
S=C=NCc1ccccc1 [Benzyl isothiocyanate] | 8% |  | none | -28% | none | 24 µM | None | 27% | 3.47 µM | none | 
C=CC(C1=CC(=O)C=CC1=O)c1ccccc1 (stereo not drawn) [Dalbergione] | 38% | 64 µM | None | 0% | None | 2.47 µM | 30 µM | 40% | 46 µM | None | 
C=C1C(=O)O[C@H]2[C@H]1CC/C(C)=C/CC[C@@]1(C)O[C@@H]21 [Parthenolide] | 47% | 28.4 µM | None | 0% | 1 µM | > 100 µM | 100 µM | 81% | 3.11 µM | None | maximal fold induction (Nrf2-ARE pathway; Cricetulus griseus, 24 h): 2.77
